Results: PubChem BioAssay AID260 (DTP/NCI, 2004)
Several values for one entry are separate records, joined by “and”; a condition that tells them apart may be missing. Equal values may be shown once. Toxic doses and inconclusive results are not listed. How the source made its calls: active means survival T/C of 150% or more; inactive means T/C below 125% in these data.

System: CD2F1 mice, intracerebral L1210 leukemia, survival T/C
Assay: NCI In Vivo Anticancer Drug Screen. Data for tumor model L1210 Leukemia (intracerebral) in CD2F1 (CDF1) mice
Details: endpoint: median survival time, higher = longer survival
Method: The antitumor activity of compounds was measured in mice bearing transplantable tumors. Survival or tumor size were measured and the results are expressed as the measurement made in the treated group (T) divided by the measurement made in the vehicle treated control group (C). The tumor model used in this assay is L1210 Leukemia (intracerebral) in CD2F1 (CDF1) mice

Measured: T/C

COC1OC(CO)C(O)C(NC(=O)N(C)N=O)C1O (centres undefined)
inactive: dose: 0.5 mg/kg/injection, schedule: Q01DX009 (ip), vehicle: saline 102 % of control | dose: 1.0 mg/kg/injection, schedule: Q01DX009 (ip), vehicle: saline 107 % of control | dose: 2.0 mg/kg/injection, schedule: Q01DX009 (ip), vehicle: saline 111 % of control | dose: 4.0 mg/kg/injection, schedule: Q01DX009 (ip), vehicle: saline 111 % of control | dose: 8.0 mg/kg/injection, schedule: Q01DX009 (ip), vehicle: saline 116 % of control | dose: 16.0 mg/kg/injection, schedule: Q01DX009 (ip), vehicle: saline 102 % of control

COc1ccc2c(c1)CCC(c1ccccc1)=C2c1ccc(OCCN2CCCC2)cc1
inactive: dose: 12.0 mg/kg/injection, schedule: Q01DX005 (ip), vehicle: Klucel (hydroxypropylcellulose) (HPC) 98 % of control and 101 % of control | dose: 24.0 mg/kg/injection, schedule: Q01DX005 (ip), vehicle: Klucel (hydroxypropylcellulose) (HPC) 106 % of control | dose: 48.0 mg/kg/injection, schedule: Q01DX005 (ip), vehicle: Klucel (hydroxypropylcellulose) (HPC) 108 % of control | dose: 96.0 mg/kg/injection, schedule: Q01DX005 (ip), vehicle: Klucel (hydroxypropylcellulose) (HPC) 106 % of control

O=P1(NCCCl)OCCC(OO)N1CCCl (centres undefined)
inactive: dose: 40.0 mg/kg/injection, schedule: Q01DX001 (ip), vehicle: Klucel (hydroxypropylcellulose) (HPC) 105 % of control | dose: 80.0 mg/kg/injection, schedule: Q01DX001 (ip), vehicle: Klucel (hydroxypropylcellulose) (HPC) 111 % of control | dose: 160.0 mg/kg/injection, schedule: Q01DX001 (ip), vehicle: Klucel (hydroxypropylcellulose) (HPC) 113 % of control | dose: 320.0 mg/kg/injection, schedule: Q01DX001 (ip), vehicle: Klucel (hydroxypropylcellulose) (HPC) 91 % of control
